Bounds are passed on as bounds.

What all share (type): biochemical
The target of one assay is adenosine A2B receptor (Homo sapiens (Human), UniProt P29275). As to the kind of experiment: Adenosine receptor activity assay (Table 1), A2B activity. As to conditions: for Ratio: A2A activity to the A2B activity, A2A/A2B; for IC50: cAMP, read-out: Ave A2B cAMP IC50.
A further assay deals with adenosine A2A receptor (Homo sapiens (Human), UniProt P29274). Nature of the assay: Adenosine receptor activity assay (Table 1), A2A activity. Particulars: cAMP; read-out: Ave A2A cAMP IC50.
Sequence of adenosine A2A receptor (P29274 whole entry): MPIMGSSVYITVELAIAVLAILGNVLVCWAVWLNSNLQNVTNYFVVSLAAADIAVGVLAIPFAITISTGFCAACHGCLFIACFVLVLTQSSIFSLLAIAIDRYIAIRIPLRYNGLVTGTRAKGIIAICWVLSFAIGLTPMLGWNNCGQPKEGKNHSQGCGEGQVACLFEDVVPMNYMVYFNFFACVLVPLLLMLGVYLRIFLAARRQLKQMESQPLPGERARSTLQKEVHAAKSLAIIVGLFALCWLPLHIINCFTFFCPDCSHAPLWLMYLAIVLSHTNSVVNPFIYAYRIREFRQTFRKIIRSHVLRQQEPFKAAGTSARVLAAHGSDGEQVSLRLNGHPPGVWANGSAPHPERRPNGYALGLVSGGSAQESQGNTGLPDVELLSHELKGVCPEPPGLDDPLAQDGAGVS
The target in another assay is adenosine A1 receptor (Homo sapiens (Human), UniProt P30542). As to the kind of experiment: Adenosine receptor activity assay (Table 1), A1 cAMP.
Sequence of adenosine A1 receptor (P30542 whole entry): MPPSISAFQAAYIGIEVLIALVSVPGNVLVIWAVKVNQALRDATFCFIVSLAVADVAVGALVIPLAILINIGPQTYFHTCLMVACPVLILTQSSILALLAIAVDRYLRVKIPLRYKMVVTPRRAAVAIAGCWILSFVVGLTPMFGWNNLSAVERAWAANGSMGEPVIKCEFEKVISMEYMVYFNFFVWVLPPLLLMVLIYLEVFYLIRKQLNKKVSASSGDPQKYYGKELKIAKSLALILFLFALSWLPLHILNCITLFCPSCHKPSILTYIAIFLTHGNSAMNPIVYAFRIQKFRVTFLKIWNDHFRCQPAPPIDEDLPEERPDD
The next assay concerns the target adenosine A3 receptor (Homo sapiens (Human), UniProt P0DMS8). Nature of the assay: Adenosine receptor activity assay (Table 1), A3 cAMP.

Sequence of adenosine A2B receptor (P29275 whole entry): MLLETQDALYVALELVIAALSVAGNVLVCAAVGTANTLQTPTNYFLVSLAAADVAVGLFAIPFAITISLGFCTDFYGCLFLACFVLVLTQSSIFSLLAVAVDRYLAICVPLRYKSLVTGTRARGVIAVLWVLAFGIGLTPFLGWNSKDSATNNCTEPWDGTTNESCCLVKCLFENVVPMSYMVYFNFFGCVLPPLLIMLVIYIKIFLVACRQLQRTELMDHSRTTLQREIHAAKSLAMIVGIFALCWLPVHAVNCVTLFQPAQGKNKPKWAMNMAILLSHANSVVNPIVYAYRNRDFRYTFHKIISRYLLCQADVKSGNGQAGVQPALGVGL
Sequence of adenosine A3 receptor (P0DMS8 whole entry): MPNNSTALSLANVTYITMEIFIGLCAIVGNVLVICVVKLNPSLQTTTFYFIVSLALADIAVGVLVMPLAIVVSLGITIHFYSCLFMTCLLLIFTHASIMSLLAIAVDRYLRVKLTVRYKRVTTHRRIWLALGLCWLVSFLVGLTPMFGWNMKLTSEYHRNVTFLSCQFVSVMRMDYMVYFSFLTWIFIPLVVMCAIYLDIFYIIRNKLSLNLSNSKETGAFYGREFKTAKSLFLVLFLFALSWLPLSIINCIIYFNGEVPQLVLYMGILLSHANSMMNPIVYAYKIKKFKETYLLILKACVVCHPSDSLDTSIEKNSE

What is called IC50 is the point on the concentration scale where inhibition reaches its midpoint. Regarding `C[C@H](Nc1nc(C(=O)N2CC(NC(=O)c3ccoc3)C2)c2sccc2n1)c1cncc(F)c1` [Example Z600, (S)—N-(1-(2-((1-(5-Fluoropyridin-3-yl)ethyl)amino)thieno[3,2-d]pyrimidine-4-carbonyl)azetidin-3-yl)furan-3-carboxamide], at adenosine A2B receptor, the Ratio was 1.90. Moreover, the half-inhibitory concentration (IC50) on adenosine A2B receptor was below 0.01 µM; at adenosine A2A receptor, 0.01 to 0.05 µM; against adenosine A1 receptor, above 0.5 µM; at adenosine A3 receptor, 0.1 to 0.5 µM.
On the same counts, the results for `C[C@H](Nc1nc(C(=O)N2CC(NC(=O)c3ccccc3)C2)c2sccc2n1)c1cncc(F)c1` [Example Z601, (S)—N-(1-(2-((1-(5-Fluoropyridin-3-yl)ethyl)amino)thieno[3,2-d]pyrimidine-4-carbonyl)azetidin-3-yl)benzamide] are 0.90, 0.01 to 0.05 µM, 0.01 to 0.05 µM, above 0.5 µM and 0.1 to 0.5 µM.
With `C[C@H](Nc1nc(C(=O)N2CC(NC(=O)C3(C)CC3)C2)c2sccc2n1)c1cncc(F)c1` [Example Z603, (S)—N-(1-(2-((1-(5-Fluoropyridin-3-yl)ethyl)amino)thieno[3,2-d]pyrimidine-4-carbonyl)azetidin-3-yl)-1-methylcyclopropane-1-carboxamide], the Ratio at adenosine A2B receptor amounted to 1.00. Also, the IC50 at adenosine A2B receptor is below 0.01 µM; at adenosine A2A receptor, below 0.01 µM; against adenosine A1 receptor it was above 0.5 µM; against adenosine A3 receptor, 0.1 to 0.5 µM.
Take `C[C@H](Nc1nc(C(=O)N2CC(NC(=O)C34CC(C3)C4)C2)c2sccc2n1)c1cncc(F)c1` [Example Z604, (S)—N-(1-(2-((1-(5-Fluoropyridin-3-yl)ethyl)amino)thieno[3,2-d]pyrimidine-4-carbonyl)azetidin-3-yl)bicyclo[1.1.1]pentane-1-carboxamide]: the Ratio at adenosine A2B receptor was found to be 0.88. For the same compound, the IC50 at adenosine A2B receptor is below 0.01 µM; at adenosine A2A receptor it was below 0.01 µM; on adenosine A1 receptor, above 0.5 µM; on adenosine A3 receptor it was 0.1 to 0.5 µM.
As to `C[C@H](Nc1nc(C(=O)N2CC(NC(=O)C3CCCC3)C2)c2sccc2n1)c1cncc(F)c1` [Example Z605, (S)—N-(1-(2-((1-(5-Fluoropyridin-3-yl)ethyl)amino)thieno[3,2-d]pyrimidine-4-carbonyl)azetidin-3-yl)cyclopentanecarboxamide], the Ratio at adenosine A2B receptor came out at 0.77. For the same compound, the IC50 is below 0.01 µM on adenosine A2B receptor, below 0.01 µM on adenosine A2A receptor, above 0.5 µM against adenosine A1 receptor and 0.1 to 0.5 µM at adenosine A3 receptor.
In the case of `C[C@H](Nc1nc(C(=O)N2CC(NC(=O)C(C)(C)C(F)(F)F)C2)c2sccc2n1)c1cncc(F)c1` [Example Z606, (S)-3,3,3-Trifluoro-N-(1-(2-((1-(5-fluoropyridin-3-yl)ethyl)amino)thieno[3,2-d]pyrimidine-4-carbonyl)azetidin-3-yl)-2,2-dimethylpropanamide], the Ratio on adenosine A2B receptor was determined as 0.47. Besides, the IC50 at adenosine A2B receptor was below 0.01 µM; at adenosine A2A receptor, below 0.01 µM; against adenosine A1 receptor, above 0.5 µM; at adenosine A3 receptor it was 0.1 to 0.5 µM.
For the compound `C[C@H](Nc1nc(C(=O)N2CC(NC(=O)C3COC3)C2)c2sccc2n1)c1cncc(F)c1` [Example Z607, (S)—N-(1-(2-((1-(5-Fluoropyridin-3-yl)ethyl)amino)thieno[3,2-d]pyrimidine-4-carbonyl)azetidin-3-yl)oxetane-3-carboxamide], the Ratio on adenosine A2B receptor was 4.49. For the same compound, the IC50 is 0.01 to 0.05 µM at adenosine A2B receptor, 0.05 to 0.1 µM at adenosine A2A receptor, above 0.5 µM on adenosine A1 receptor and above 0.5 µM on adenosine A3 receptor.
Turning to `C[C@H](Nc1nc(C(=O)N2CC(NC(=O)C3(C)CCOC3)C2)c2sccc2n1)c1cncc(F)c1` (stereo partly drawn) [Example Z608, N-(1-(2-(((S)-1-(5-Fluoropyridin-3-yl)ethyl)amino)thieno[3,2-d]pyrimidine-4-carbonyl)azetidin-3-yl)-3-methyltetrahydrofuran-3-carboxamide], at adenosine A2B receptor, the Ratio is reported as 0.42. Besides, the 50% inhibitory concentration (IC50) on adenosine A2B receptor is 0.01 to 0.05 µM; at adenosine A2A receptor it was below 0.01 µM; against adenosine A1 receptor, above 0.5 µM; on adenosine A3 receptor, above 0.5 µM.
On to `C[C@H](Nc1nc(C(=O)N2CC(NC(=O)C3(C(F)(F)F)CC3)C2)c2sccc2n1)c1cncc(F)c1` [Example Z609, (S)—N-(1-(2-((1-(5-Fluoropyridin-3-yl)ethyl)amino)thieno[3,2-d]pyrimidine-4-carbonyl)azetidin-3-yl)-1-(trifluoromethyl)cyclopropane-1-carboxamide], for which the Ratio on adenosine A2B receptor amounted to 0.98. For the same compound, the concentration for half-maximal inhibition (IC50) on adenosine A2B receptor is below 0.01 µM; on adenosine A2A receptor, below 0.01 µM; at adenosine A1 receptor, above 0.5 µM; at adenosine A3 receptor, 0.1 to 0.5 µM.
On to `C[C@H](Nc1nc(C(=O)N2CC(NC(=O)C3CCCCC3)C2)c2sccc2n1)c1cncc(F)c1` [Example Z610, (S)—N-(1-(2-((1-(5-Fluoropyridin-3-yl)ethyl)amino)thieno[3,2-d]pyrimidine-4-carbonyl)azetidin-3-yl)cyclohexanecarboxamide], for which the Ratio at adenosine A2B receptor is reported as 0.24. Also, the half-maximal inhibitory concentration (IC50) at adenosine A2B receptor was below 0.01 µM; at adenosine A2A receptor, below 0.01 µM; on adenosine A1 receptor it was above 0.5 µM; against adenosine A3 receptor, 0.01 to 0.05 µM.
For the compound `C[C@H](Nc1nc(C(=O)N2CC(NC(=O)NC(C)(C)C)C2)c2sccc2n1)c1cncc(F)c1` [Example Z611, (S)-1-(tert-Butyl)-3-(1-(2-((1-(5-fluoropyridin-3-yl)ethyl)amino)thieno[3,2-d]pyrimidine-4-carbonyl)azetidin-3-yl)urea], the Ratio at adenosine A2B receptor is given as 0.80. The IC50 on adenosine A2B receptor was below 0.01 µM; on adenosine A2A receptor, below 0.01 µM; against adenosine A1 receptor, above 0.5 µM; against adenosine A3 receptor, 0.1 to 0.5 µM.
On to `C[C@H](Nc1nc(C(=O)N2CC(NC(=O)CCC3CCOCC3)C2)c2sccc2n1)c1cncc(F)c1` [Example Z612, (S)—N-(1-(2-((1-(5-Fluoropyridin-3-yl)ethyl)amino)thieno[3,2-d]pyrimidine-4-carbonyl)azetidin-3-yl)-3-(tetrahydro-2H-pyran-4-yl)propanamide], for which, on adenosine A2B receptor, the Ratio came to 1.02. Moreover, the IC50 at adenosine A2B receptor is 0.01 to 0.05 µM; at adenosine A2A receptor, 0.01 to 0.05 µM; on adenosine A1 receptor it was above 0.5 µM; at adenosine A3 receptor, 0.1 to 0.5 µM.
With `C[C@H](Nc1nc(C(=O)N2CC(NC(=O)c3cccc(F)c3)C2)c2sccc2n1)c1cncc(F)c1` [Example Z613, (S)-3-Fluoro-N-(1-(2-((1-(5-fluoropyridin-3-yl)ethyl)amino)thieno[3,2-d]pyrimidine-4-carbonyl)azetidin-3-yl)benzamide], the Ratio at adenosine A2B receptor is 2.55. Besides, the IC50 at adenosine A2B receptor was below 0.01 µM; on adenosine A2A receptor, below 0.01 µM; against adenosine A1 receptor, above 0.5 µM; against adenosine A3 receptor, 0.1 to 0.5 µM.
Consider `C[C@H](Nc1nc(C(=O)N2CC(NC(=O)c3ccccc3F)C2)c2sccc2n1)c1cncc(F)c1` [Example Z614, (S)-2-Fluoro-N-(1-(2-((1-(5-fluoropyridin-3-yl)ethyl)amino)thieno[3,2-d]pyrimidine-4-carbonyl)azetidin-3-yl)benzamide], for which the Ratio at adenosine A2B receptor is on record as 1.76. Also, the IC50 at adenosine A2B receptor is below 0.01 µM; on adenosine A2A receptor, below 0.01 µM; on adenosine A1 receptor, above 0.5 µM; at adenosine A3 receptor, 0.1 to 0.5 µM.
In the case of `C[C@H](Nc1nc(C(=O)N2CC(NC(=O)c3cccc(Cl)c3)C2)c2sccc2n1)c1cncc(F)c1` [Example Z615, (S)-3-Chloro-N-(1-(2-((1-(5-fluoropyridin-3-yl)ethyl)amino)thieno[3,2-d]pyrimidine-4-carbonyl)azetidin-3-yl)benzamide], the Ratio at adenosine A2B receptor came to 2.10. Besides, the half-maximal inhibitory concentration (IC50) on adenosine A2B receptor is below 0.01 µM; on adenosine A2A receptor, below 0.01 µM; against adenosine A1 receptor, above 0.5 µM; at adenosine A3 receptor it was 0.1 to 0.5 µM.
Consider `C[C@H](Nc1nc(C(=O)N2CC(NC(=O)c3ccc(F)c(F)c3)C2)c2sccc2n1)c1cncc(F)c1` [Example Z616, (S)-3,4-Difluoro-N-(1-(2-((1-(5-fluoropyridin-3-yl)ethyl)amino)thieno[3,2-d]pyrimidine-4-carbonyl)azetidin-3-yl)benzamide], for which, at adenosine A2B receptor, the Ratio worked out at 4.32. In addition, the concentration for half-maximal inhibition (IC50) is below 0.01 µM at adenosine A2B receptor, 0.01 to 0.05 µM at adenosine A2A receptor, above 0.5 µM against adenosine A1 receptor and above 0.5 µM on adenosine A3 receptor.
For `C[C@H](Nc1nc(C(=O)N2CC(NC(=O)c3ccc(Cl)cc3)C2)c2sccc2n1)c1cncc(F)c1` [Example Z617, (S)-4-Chloro-N-(1-(2-((1-(5-fluoropyridin-3-yl)ethyl)amino)thieno[3,2-d]pyrimidine-4-carbonyl)azetidin-3-yl)benzamide], the Ratio on adenosine A2B receptor is given as 3.67. In addition, the concentration for half-maximal inhibition (IC50) was below 0.01 µM on adenosine A2B receptor, 0.01 to 0.05 µM on adenosine A2A receptor, above 0.5 µM against adenosine A1 receptor and above 0.5 µM against adenosine A3 receptor.
As for `C[C@H](Nc1nc(C(=O)N2CC(NC(=O)OC3CCCC3)C2)c2sccc2n1)c1cncc(F)c1` [Example Z618, Cyclopentyl (S)-(1-(2-((1-(5-fluoropyridin-3-yl)ethyl)amino)thieno[3,2-d]pyrimidine-4-carbonyl)azetidin-3-yl)carbamate], the Ratio on adenosine A2B receptor stood at 1.31. Besides, the IC50 was 0.01 to 0.05 µM on adenosine A2B receptor, 0.01 to 0.05 µM at adenosine A2A receptor, above 0.5 µM against adenosine A1 receptor and 0.1 to 0.5 µM at adenosine A3 receptor.
For `C[C@H](Nc1nc(C(=O)N2CC(NC(=O)c3ccncc3)C2)c2sccc2n1)c1cncc(F)c1` [Example Z619, (S)—N-(1-(2-((1-(5-Fluoropyridin-3-yl)ethyl)amino)thieno[3,2-d]pyrimidine-4-carbonyl)azetidin-3-yl)isonicotinamide], the Ratio at adenosine A2B receptor is recorded as 6.42. Moreover, the IC50 on adenosine A2B receptor was 0.01 to 0.05 µM; at adenosine A2A receptor, 0.05 to 0.1 µM; against adenosine A1 receptor, above 0.5 µM; against adenosine A3 receptor, above 0.5 µM.

The record behind these values is patent US11254686B1 (Corvus Pharmaceuticals, Inc., priority 2017, dated 2022).
